Measurements from a melting point compilation (Tetko et al.; mined from patent text by program, amines drawn as free bases though some values may be those of a salt).

Row | SMILES | melting point [°C]
1 | ON=C(c1ccc(Cl)cc1)c1cccc2nc(N[C@@H]3CCc4ccccc43)ccc12 | 194
2 | Cc1c2ccnc(Cl)c2cc2c1[nH]c1ccncc12 | > 263
3 | O=C(NCCc1ccc(Cl)cc1)C1=C(NCCc2ccc(Cl)cc2)CS(=O)(=O)N(Cc2ccc(Cl)c(Cl)c2)c2ccccc21 | 119 to 121
4 | Cc1c(-c2ccccc2)ncc2c(N3CCOC(C)C3)nnc(N3CCOC(C)C3)c12 (stereo not drawn) | 96 to 99
5 | O=C(Nc1cc(C(F)(F)F)cc(C(F)(F)F)c1)C1C(=O)C2CCC(C2)C1=O (stereo not drawn) | 88 to 90
6 | O=C1NC(=S)SC1=Cc1ccc2c(c1)N(CCc1ccc(F)c(F)c1)C(=O)CO2 | 263 to 266
7 | O=C(Nc1c(Br)cc(Br)cc1C(=O)NCC1CCCCC1)N[C@@H](Cc1ccc(NC(=O)c2c(Cl)cccc2Cl)cc1)C(=O)O | 193
8 | O=C1c2c(Cl)cccc2-n2cnc(-c3nnco3)c2[C@@H]2CCCN12 | 229 to 230
9 | CCC(=O)NC1CCc2c([nH]c3ccccc23)C1 (stereo not drawn) | 169 to 170
10 | O=C(NCc1ccc(Cl)cc1)c1cn(CCN2CCOCC2)c2ccc(C=CCO)cc2c1=O | 146 to 148
11 | COC[C@@H]1Cc2ccccc2N1C(=O)OC(C)(C)C | 173 to 175
12 | CCN(CC)OC(=Nc1c(C(C)C)cccc1C(C)C)Nc1c(C(C)C)cccc1C(C)C | 113 to 116
13 | Cc1cn(C(C)C(=O)N(C)C)nc1-c1ccccc1Cl (stereo not drawn) | 98.5 to 100
14 | CS(=O)(=O)c1cccc(S(C)(=O)=O)n1 | 192 to 195
15 | O=C(Nc1c(-c2ccccc2F)nnn1CSc1ccccc1)C(Cl)C1CCC1 (stereo not drawn) | 103 to 104
16 | N[C@@H](Cc1ccccc1)[C@@H](O)C(F)(F)C(=O)NCc1ccccc1 | 128 to 130
17 | CC[C@H]1[C@H](O)C2(CC2)C(=O)N1c1ccc(C#N)c(C(F)(F)F)c1 | 106 to 110
18 | Cc1nc(CS(C)(=O)=O)nc(OC(=O)NN2CCOCC2)c1C | 147
19 | O=C(C=Cc1ccccc1)N1CCc2c([nH]c3ccccc23)C1c1ccc2c(c1)CCC2 (stereo not drawn) | 223
20 | CC1(C)CC(NC(=O)c2cc(N)cc(N)c2)CC(C)(C)N1 | 188 to 190
21 | Cc1sc(N2C(=O)c3ccccc3C2=O)c(C(=O)c2ccc(Cl)cc2)c1CBr | 173 to 175
22 | COc1ccc(C)cc1NC(=O)Nc1ccc(N2CCN(C(N)=O)CC2)cc1 | 136
23 | CC(C)(C)OC(=O)C(=O)C=[N+]=[N-] | 100
24 | CNN(NC)C(=O)Nc1cccc2c1C(=O)c1c-2n[nH]c1-c1cc(C)sc1C | 252

Row | SMILES | melting point [°C]
25 | OCc1cccc2nc(-c3ccccc3)sc12 | 101 to 102
26 | Cc1nn(C(CCCc2ccccc2)C(C)O)c2ncn(Cc3ccc(Cl)c(Cl)c3)c(=O)c12 (stereo not drawn) | 160
27 | CCCn1nc2c(N)nc3ccccc3c2c1CCCc1cc(-c2ccccc2)on1 | 172 to 173
28 | CCOC(=O)C1=C(C)Nc2ccnc(OC(C)C)c2C1c1ccccc1Cl (stereo not drawn) | 135 to 136
29 | COc1ccc(CNc2cc(C(c3cc(F)ccc3F)S(=O)(=O)c3ccc(F)cc3)c(Cl)cn2)cc1OC (stereo not drawn) | 158 to 159
30 | CNC(=O)c1cccc(Cl)c1Nc1nc(Nc2ccc3c(c2)CCCC(=O)N3C)ncc1Cl | 145 to 160
31 | COc1ccc(CC(C)(C)CO)cc1OC | 48.5 to 50
32 | CC(C)C(Br)=C(c1ccccc1)c1ccccc1 | 112 to 114
33 | C[C@@H]([C@@H](O)c1ccc(OCc2ccccc2)cc1)N1CCC(O)(c2ccccc2)CC1 | 158 to 161
34 | O=C(Nc1ccc(OC(F)(F)F)c(Br)c1)C(F)(F)F | 64 to 66
35 | C=CCC1CC(c2c[nH]c(-c3ccc(F)cc3)c2-c2ccncc2)=CCN1C (stereo not drawn) | 178 to 180
36 | O=c1nc(O)ccc2ccccc12 | 129 to 131
37 | CC(=O)Nc1ccc(CO)cc1[N+](=O)[O-] | 114 to 115
38 | CC(=O)c1nc(-c2ccc(=O)n(C(C)C)n2)c(-c2ccccc2)nc1N | 234 to 236
39 | Cc1cc(N(C)Cc2ccc(-c3ccc(C(F)(F)F)cc3)nc2)ccc1OCC(=O)O | 199
40 | COc1ccc(C2=NN(Cc3ccc(OCCCCBr)cc3)C(=O)[C@@H]3CC=CC[C@H]23)cc1OC | 42 to 46
41 | O=C(O)c1ccc(N(CCn2ccnc2)c2ccc(F)cc2)cc1-c1ccc(F)cc1 | 195 to 200
42 | Cc1ccc(Cl)cc1N1C(=O)CON(C)C1=S | 100 to 102
43 | COC(=O)c1nc(N(C)C2CCCCC2)ccc1Oc1nc(OC)cc(OC)n1 | 116 to 118
44 | O=C(COC(=O)C(O)Cc1ccccc1)Oc1ccccc1 (stereo not drawn) | 98 to 99
45 | COc1ccccc1NC(=O)Nc1ccc(N2CCN(C(=O)Nc3cc(OCCO)ccc3Cl)CC2)cc1 | 179 to 180
46 | Cc1ccc(-c2c(Cl)ncnc2OCCO)cc1 | 62 to 64
47 | CCCc1cc2cc(NC(=O)OCC)ccc2o1 | 69 to 70
48 | CCOCc1nc2c(N)nc3cc(N4CCOC4=O)ccc3c2n1CCCOC(C)C | 166 to 167
